What follows are compounds tested against T1, human Nav1.8 (hNav1.8) ion channel (Homo sapiens, UniProt Q9Y5Y9) (assay: Nav1.8 channel inhibition, estimated IC50 (one or more of: fluorescence inhibition assay, PatchXpress, IonFlux HT automated patch clamp)). Details: HEK293 cells stably expressing hNav1.8; method used per compound not stated; read-out: Activity range (estimated IC50).
T1 construct: expressed in transfected cells; host or cells: HEK293
T1 sequence (Q9Y5Y9 whole entry): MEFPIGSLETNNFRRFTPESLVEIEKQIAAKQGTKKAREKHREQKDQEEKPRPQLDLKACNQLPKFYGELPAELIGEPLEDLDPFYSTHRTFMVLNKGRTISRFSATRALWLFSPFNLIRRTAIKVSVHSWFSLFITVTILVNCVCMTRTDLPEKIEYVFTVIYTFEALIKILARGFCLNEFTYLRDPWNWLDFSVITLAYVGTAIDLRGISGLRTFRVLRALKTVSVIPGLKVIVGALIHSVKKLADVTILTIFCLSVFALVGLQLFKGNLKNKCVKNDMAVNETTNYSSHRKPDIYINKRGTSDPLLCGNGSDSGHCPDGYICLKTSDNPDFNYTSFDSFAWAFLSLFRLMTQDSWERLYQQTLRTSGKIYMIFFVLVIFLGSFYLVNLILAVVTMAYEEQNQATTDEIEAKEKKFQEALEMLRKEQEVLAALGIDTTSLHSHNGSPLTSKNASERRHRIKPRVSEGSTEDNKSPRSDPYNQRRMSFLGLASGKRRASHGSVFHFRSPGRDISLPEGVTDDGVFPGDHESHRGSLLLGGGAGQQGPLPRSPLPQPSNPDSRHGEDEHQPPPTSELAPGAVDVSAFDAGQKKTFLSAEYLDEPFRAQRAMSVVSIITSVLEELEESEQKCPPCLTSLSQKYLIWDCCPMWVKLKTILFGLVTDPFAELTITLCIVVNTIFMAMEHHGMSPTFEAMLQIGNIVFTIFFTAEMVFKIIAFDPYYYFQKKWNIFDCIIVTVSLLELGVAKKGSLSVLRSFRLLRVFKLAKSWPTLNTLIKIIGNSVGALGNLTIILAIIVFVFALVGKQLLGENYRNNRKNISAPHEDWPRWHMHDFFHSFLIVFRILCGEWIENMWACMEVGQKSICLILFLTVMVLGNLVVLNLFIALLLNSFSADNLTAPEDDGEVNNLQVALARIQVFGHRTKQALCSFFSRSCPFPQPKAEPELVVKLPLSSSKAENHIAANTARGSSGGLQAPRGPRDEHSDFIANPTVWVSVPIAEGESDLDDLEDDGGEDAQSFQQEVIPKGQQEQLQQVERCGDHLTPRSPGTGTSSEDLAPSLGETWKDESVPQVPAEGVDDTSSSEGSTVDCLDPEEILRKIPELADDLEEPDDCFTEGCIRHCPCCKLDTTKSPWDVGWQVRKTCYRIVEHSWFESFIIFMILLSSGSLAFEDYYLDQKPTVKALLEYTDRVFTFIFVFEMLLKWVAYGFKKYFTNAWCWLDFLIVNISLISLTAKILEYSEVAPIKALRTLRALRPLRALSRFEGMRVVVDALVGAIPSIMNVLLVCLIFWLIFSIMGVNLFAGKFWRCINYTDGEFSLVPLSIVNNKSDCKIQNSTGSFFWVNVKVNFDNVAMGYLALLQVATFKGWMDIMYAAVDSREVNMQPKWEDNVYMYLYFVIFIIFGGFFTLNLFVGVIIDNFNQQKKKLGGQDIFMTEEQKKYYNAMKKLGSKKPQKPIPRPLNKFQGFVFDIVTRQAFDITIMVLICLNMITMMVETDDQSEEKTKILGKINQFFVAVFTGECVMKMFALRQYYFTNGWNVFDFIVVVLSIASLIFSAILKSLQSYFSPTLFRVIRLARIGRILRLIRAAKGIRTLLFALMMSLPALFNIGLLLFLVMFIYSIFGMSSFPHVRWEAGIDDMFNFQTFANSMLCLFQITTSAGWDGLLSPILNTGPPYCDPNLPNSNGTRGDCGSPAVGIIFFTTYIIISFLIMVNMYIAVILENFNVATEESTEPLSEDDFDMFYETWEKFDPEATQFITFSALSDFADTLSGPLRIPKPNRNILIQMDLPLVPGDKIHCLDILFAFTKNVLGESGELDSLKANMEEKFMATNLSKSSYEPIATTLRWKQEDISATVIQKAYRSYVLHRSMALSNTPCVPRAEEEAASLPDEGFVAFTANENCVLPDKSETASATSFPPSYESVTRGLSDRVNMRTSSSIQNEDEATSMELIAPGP
Format: cell-based
Summary of the method: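 HEK293 cells stably expressing hNav1.8 with β1/β2 subunits; IC50 from the fluorescence assay and/or automated whole-cell patch clamp (PatchXpress, IonFlux HT). Fluorescence: ANG-2 Na dye, 5 min compound preincubation (0.02–5 μM, 1% DMSO) with 30 μM ouabain, stimulation by 10 μM deltamethrin, peak signal fit logistically. PatchXpress: holding potential reset to Vhalf, inhibition normalized to control/washout currents.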
For COc1ccc(Oc2cc(C(F)(F)F)ncc2C(=O)Nc2cccc(S(C)(=N)=O)c2)c(OC)c1 (centres unmarked) [Example 102, 4-(2,4-dimethoxyphenoxy)-N-[3-(methylsulfonimidoyl)phenyl]-6-(trifluoromethyl)pyridine-3-carboxamide], the IC50 was over 1000 nM.
Work on COc1cc(F)ccc1Oc1nc(C)ccc1C(=O)Nc1cccc(S(C)(=O)=O)c1 [Example 117, 2-(4-fluoro-2-methoxy-phenoxy)-6-methyl-N-(3-methylsulfonylphenyl)pyridine-3-carboxamide] yielded an IC50 of over 1000 nM.
Work on O=C(Nc1ccnnc1)c1cc(C(F)(F)F)cnc1Oc1ccc(OC(F)(F)F)cc1 [Example 128, N-pyridazin-4-yl-2-[4-(trifluoromethoxy)phenoxy]-5-(trifluoromethyl)pyridine-3-carboxamide] yielded an IC50 of under 500 nM.
CN(C)S(=O)(=O)c1cccc(NC(=O)c2cnc(C(F)(F)F)cc2Oc2ccc(OC(F)(F)F)cc2Cl)c1 [Example 76, 4-[2-chloro-4-(trifluoromethoxy)phenoxy]-N-[3-(dimethylsulfamoyl)phenyl]-6-(trifluoromethyl)pyridine-3-carboxamide] gave an IC50 of 500 to 1000 nM.
Compound COc1cc(F)ccc1Oc1ncc(C(F)(F)F)cc1C(=O)Nc1ccc(C#N)nc1 [Example 7, N-(6-cyano-3-pyridyl)-2-(4-fluoro-2-methoxy-phenoxy)-5-(trifluoromethyl)pyridine-3-carboxamide] has an IC50 of over 1000 nM.
COc1cc(F)ccc1Oc1ncc(C(F)(F)F)cc1C(=O)Nc1cccnc1 [Example 4, 2-(4-fluoro-2-methoxy-phenoxy)-N-(3-pyridyl)-5-(trifluoromethyl)pyridine-3-carboxamide] showed an IC50 of over 1000 nM.
For O=C(Nc1ccnnc1)c1cnc(C(F)(F)F)cc1Oc1ccc(OC(F)(F)F)cc1 [Example 96, N-pyridazin-4-yl-4-[4-(trifluoromethoxy)phenoxy]-6-(trifluoromethyl)pyridine-3-carboxamide], the IC50 was 500 to 1000 nM.
COc1cc(F)ccc1Oc1ncc(C(F)(F)F)cc1C(=O)Nc1ccnc(C)c1 [Example 17, 2-(4-fluoro-2-methoxy-phenoxy)-N-(2-methyl-4-pyridyl)-5-(trifluoromethyl)pyridine-3-carboxamide] was tested, and the IC50 was over 1000 nM.
COc1cc(F)ccc1Oc1ncc(OC(F)F)cc1C(=O)Nc1cccc(S(C)(=O)=O)c1 [Example 179, 5-(difluoromethoxy)-2-(4-fluoro-2-methoxy-phenoxy)-N-(3-methylsulfonylphenyl)pyridine-3-carboxamide] was tested, and the IC50 was under 500 nM.
In the case of NC(=O)c1cccc(NC(=O)c2cnc(C(F)(F)F)cc2Oc2ccc(OC(F)(F)F)cc2Cl)c1 [Example 81, N-(3-carbamoylphenyl)-4-[2-chloro-4-(trifluoromethoxy)phenoxy]-6-(trifluoromethyl)pyridine-3-carboxamide], the IC50 is reported as under 500 nM.
CS(=O)(=O)c1ccc(F)c(NC(=O)c2cc(C(F)(F)F)cnc2Oc2ccc(OC(F)(F)F)cc2Cl)c1 [Example 162, 2-[2-chloro-4-(trifluoromethoxy)phenoxy]-N-(2-fluoro-5-methylsulfonyl-phenyl)-5-(trifluoromethyl)pyridine-3-carboxamide] was tested, and the IC50 was under 500 nM.
Work on CN=S(C)(=O)c1cccc(NC(=O)c2cnc(C(F)(F)F)cc2Oc2ccc(OC(F)(F)F)cc2Cl)c1 (centres unmarked) [Example 82, 4-[2-chloro-4-(trifluoromethoxy)phenoxy]-N-[3-(N,S-dimethylsulfonimidoyl)phenyl]-6-(trifluoromethyl)pyridine-3-carboxamide] yielded an IC50 of under 500 nM.
CS(=N)(=O)c1cccc(NC(=O)c2cc(C(F)(F)F)cnc2Oc2ccc(F)cc2Cl)c1 (centres unmarked) [Example 60, 2-(2-chloro-4-fluoro-phenoxy)-N-[3-(methylsulfonimidoyl)phenyl]-5-(trifluoromethyl)pyridine-3-carboxamide] was tested, and the IC50 was under 500 nM.
N#Cc1cccc(NC(=O)c2cc(C(F)(F)F)cnc2Oc2ccc(OC(F)(F)F)cc2Cl)c1 [Example 146, 2-[2-chloro-4-(trifluoromethoxy)phenoxy]-N-(3-cyanophenyl)-5-(trifluoromethyl)pyridine-3-carboxamide] showed an IC50 of under 500 nM.
For COc1cc(F)ccc1Oc1nc(C(F)(F)F)ccc1C(=O)Nc1cccc(S(C)(=O)=O)c1 [Example 66, 2-(4-fluoro-2-methoxy-phenoxy)-N-(3-methylsulfonylphenyl)-6-(trifluoromethyl)pyridine-3-carboxamide], the IC50 was under 500 nM.
In the case of CS(=O)(=O)c1cccc(NC(=O)c2cc(C(F)(F)F)cnc2Oc2ccc(OC(F)F)cc2)c1 [Example 39, 2-[4-(difluoromethoxy)phenoxy]-N-(3-methylsulfonyl-phenyl)-5-(trifluoromethyl)pyridine-3-carboxamide], the IC50 is reported as under 500 nM.
Cc1ccc(S(C)(=O)=O)cc1NC(=O)c1cc(C(F)(F)F)cnc1Oc1ccc(OC(F)(F)F)cc1Cl [Example 168, 2-[2-chloro-4-(trifluoromethoxy)phenoxy]-N-(2-methyl-5-methylsulfonyl-phenyl)-5-(trifluoromethyl)pyridine-3-carboxamide] gave an IC50 of 500 to 1000 nM.
With COc1cc(F)ccc1Oc1ncc(C(F)(F)F)cc1C(=O)Nc1ccc(C)nc1 [Example 18, 2-(4-fluoro-2-methoxy-phenoxy)-N-(6-methyl-3-pyridyl)-5-(trifluoromethyl)pyridine-3-carboxamide] the IC50 was over 1000 nM.
O=C(Nc1cncnc1)c1cc(C(F)(F)F)cnc1Oc1ccc(OC(F)(F)F)cc1Cl [Example 157, 2-[2-chloro-4-(trifluoromethoxy)phenoxy]-N-pyrimidin-5-yl-5-(trifluoromethyl)pyridine-3-carboxamide] was tested, and the IC50 was 500 to 1000 nM.
Work on COc1cc(F)ccc1Oc1ncc(C(F)(F)F)cc1C(=O)Nc1cccc(S(=O)(=O)C(F)(F)F)c1 [Example 13, 2-(4-fluoro-2-methoxy-phenoxy)-5-(trifluoromethyl)-N-[3-(trifluoromethylsulfonyl)phenyl]pyridine-3-carboxamide] yielded an IC50 of over 1000 nM.
CS(=O)(=O)c1cccc(NC(=O)c2cc(C(F)(F)F)cnc2Oc2ccc(Cl)cc2Cl)c1 [Example 21, 2-(2,4-dichlorophenoxy)-N-(3-methylsulfonylphenyl)-5-(trifluoromethyl)pyridine-3-carboxamide] showed an IC50 of under 500 nM.
Compound CN(C)c1ccccc1Oc1ncc(C(F)(F)F)cc1C(=O)Nc1cccc(S(C)(=O)=O)c1 [Example 52, 2-[2-(dimethylamino)phenoxy]-N-(3-methylsulfonyl-phenyl)-5-(trifluoromethyl)pyridine-3-carboxamide] has an IC50 of 500 to 1000 nM.
Compound CS(=N)(=O)c1cccc(NC(=O)c2cc(C(F)(F)F)cnc2Oc2ccccc2Cl)c1 (centres unmarked) [Example 62, 2-(2-chlorophenoxy)-N-[3-(methylsulfonimidoyl)phenyl]-5-(trifluoromethyl)pyridine-3-carboxamide] has an IC50 of under 500 nM.
Work on COc1cc(F)ccc1Oc1nc(OC)c(F)cc1C(=O)Nc1cccc(S(C)(=O)=O)c1 [Example 178, 5-fluoro-2-(4-fluoro-2-methoxy-phenoxy)-6-methoxy-N-(3-methylsulfonylphenyl)pyridine-3-carboxamide] yielded an IC50 of under 500 nM.
For COc1ccc(Oc2ncc(C(F)(F)F)cc2C(=O)Nc2ccc[n+]([O-])c2)c(Cl)c1 [Example 138, 3-(2-(2-chloro-4-methoxyphenoxy)-5-(trifluoromethyl)nicotinamido)pyridine 1-oxide], the IC50 was under 500 nM.
Work on CS(=O)(=O)c1cccc(NC(=O)c2cc(C(F)(F)F)cnc2Oc2cccc3scnc23)c1 [Example 58, 2-(1,3-benzothiazol-4-yloxy)-N-(3-methylsulfonyl-phenyl)-5-(trifluoromethyl)pyridine-3-carboxamide] yielded an IC50 of over 1000 nM.
With COc1cc(F)ccc1Oc1nc(C)c(C#N)cc1C(=O)Nc1cccc(S(C)(=O)=O)c1 [Example 177, 5-cyano-2-(4-fluoro-2-methoxy-phenoxy)-6-methyl-N-(3-methylsulfonylphenyl)pyridine-3-carboxamide] the IC50 was 500 to 1000 nM.
Cc1ccc(Oc2ncc(C(F)(F)F)cc2C(=O)Nc2cccc(S(C)(=O)=O)c2)c(C)c1 [Example 22, 2-(2,4-dimethylphenoxy)-N-(3-methylsulfonylphenyl)-5-(trifluoromethyl)pyridine-3-carboxamide] gave an IC50 of over 1000 nM.
With COc1ccc(Oc2cc(C(F)(F)F)ncc2C(=O)Nc2ccnnc2)c(OC)c1 [Example 99, 4-(2,4-dimethoxyphenoxy)-N-pyridazin-4-yl-6-(trifluoromethyl)pyridine-3-carboxamide] the IC50 was under 500 nM.
Compound C[S+]([O-])c1cccc(NC(=O)c2cc(C(F)(F)F)cnc2Oc2ccc(OC(F)(F)F)cc2)c1 (centres unmarked) [Example 121, N-(3-methylsulfinylphenyl)-2-[4-(trifluoromethoxy)phenoxy]-5-(trifluoromethyl)pyridine-3-carboxamide] has an IC50 of under 500 nM.
Compound COc1cc(F)ccc1Oc1ncc(Br)cc1C(=O)Nc1cccc(S(C)(=O)=O)c1 [Example 111, 5-bromo-2-(4-fluoro-2-methoxy-phenoxy)-N-(3-methylsulfonylphenyl)pyridine-3-carboxamide] has an IC50 of over 1000 nM.
For CC(C)Oc1ccccc1Oc1ncc(C(F)(F)F)cc1C(=O)Nc1cccc(S(C)(=O)=O)c1 [Example 27, 2-(2-isopropoxyphenoxy)-N-(3-methylsulfonylphenyl)-5-(trifluoromethyl)pyridine-3-carboxamide], the IC50 was over 1000 nM.
COc1cc(F)ccc1Oc1ncc(Cl)cc1C(=O)Nc1cccc(S(C)(=O)=O)c1 [Example 119, 5-chloro-2-(4-fluoro-2-methoxy-phenoxy)-N-(3-methylsulfonylphenyl)pyridine-3-carboxamide] was tested, and the IC50 was 500 to 1000 nM.
COc1cc(F)ccc1Oc1ncc(C(F)(F)F)cc1C(=O)Nc1cccc([S+](C)[O-])c1 (centres unmarked) [Example 8, 2-(4-fluoro-2-methoxy-phenoxy)-N-(3-methylsulfinylphenyl)-5-(trifluoromethyl)pyridine-3-carboxamide] gave an IC50 of under 500 nM.
In the case of CN=S(C)(=O)c1cccc(NC(=O)c2cc(C(F)(F)F)cnc2Oc2ccc(F)cc2OC)c1 (centres unmarked) [Example 16, N-[3-(N,S-dimethylsulfonimidoyl)phenyl]-2-(4-fluoro-2-methoxy-phenoxy)-5-(trifluoromethyl)pyridine-3-carboxamide], the IC50 is reported as under 500 nM.

From patent US12234221B2, “Pyridine carboxamide compounds for inhibiting NAV1.8” (Lieber Institute, Inc., priority 2018, dated 2025)
